Experimental findings from patent US20140005281A1, “Method of Predicting Increased Risk of Suffering Statin-induced Adverse Drug Reactions” (priority 2012, published 2014) are described below.

The subject of data set [1] is αC418W and WT mice. The data set is described as follows: GBHA stain for end-plate (NMJ) calcium overload, tibialis anterior muscle. The source says: (§1) Serial cryosections of tibialis anterior muscle from statin-treated αC418W and WT mice were stained for calcium deposits (via GBHA) and also for cholinesterase to localize end-plates. Looking at these in adjacent sections, we were able to measure the percent of calcium-positive NMJs as previously described.

Data set [2] in a line: Cholesterol measurement in muscle during statin treatment. The note with it: after 3 days of statin treatment, 44 mg/kg daily oral gavage. Type of data set: in vivo, mice.
Protocol: 800 μl of each sucrose gradient fraction were subjected to the Bligh-Dyer method for the extraction of lipids in solution. Briefly, 3.75 ml 1:2 (v/v) CHC13: MeOH were added to each sample, followed by 1.25 ml of CHCl3, and 1.25 ml of distilled water; after each addition, samples were vigorously vortexed. The organic phase of each sample was carefully extracted and dried under N2(g). Cholesterol was separated from other lipids on rhodamine 6G stained silica gel G plates with petroleum ether/diethyl ether (98:2, v/v) as the solvent system. The spots corresponding to cholesterol was extracted with petroleum ether:ethyl ether (2:3 v/v) and further assayed using the Wako cholesterol E Kit (Wako Chemicals USA, VA) according to the manufacturer's indications.
Data set [3] deals with caspase-3. The following applies: mouse, in vivo. As to the method: A firefly luciferase-based assay was used to measure activity of caspase 3 (Caspase-Glo® 3/7, Promega). Muscles were homogenized (25 mM HEPES pH 7.5, 0.1% (v/v) Triton X-100, 5 mM MgCl2, 2 mM 1,4-dithiothreitol, 10 mM NH4Cl, 10 mM 3-methyladenine, 74 μM antipain, 0.15 μM aprotinin, 1.3 mM EDTA, 20 μM leupeptin, and 15 μM pepstatin). After homogenization, a 20 μg protein product was added to the luminometer in triplicates for the protease luminescence assay.
as §1

In the case of `CC(C)c1c(C(=O)Nc2ccccc2)c(-c2ccccc2)c(-c2ccc(F)cc2)n1CC[C@@H](O)C[C@@H](O)CC(=O)O` [atorvastatin, Atorvastatin calcium], in data set [1] (WT mice, statin treatment), the NMJ calcium overload result is listed as “did not cause NMJ calcium overload”. Further, in data set [1] (αC418W mice, at 36 days of statin treatment), the “NMJ calcium overload (GBHA-positive end-plates), increase over control levels” value is reported as approximately 3 fold. Further, the total cholesterol levels result in data set [2] was “significantly lowered”. Moreover, in data set [3], the caspase-3 activity result is on record as “did not show an increase” and the “caspase-3 activity compared with placebo-treated control group” value is recorded as “remained unchanged”.
